One molecule from article PMC6407917, “Identification of GSK3186899/DDD853651 as a Preclinical Development Candidate for the Treatment of Visceral Leishmaniasis” (Journal of Medicinal Chemistry, 2018) can be followed below.

Test in all cases: biochemical
What all share (set-up): species or system HEK293/K-562/placenta mixed human extract; Kinobeads chemoproteomic competition binding, quantified by TMT LC-MS/MS, dose response up to 20 uM

For test [1], the target named is MARK3 (Homo sapiens, UniProt P27448).
Test [2] deals with ULK1 (Homo sapiens, UniProt O75385).
The target of test [3] is WNK4 (Homo sapiens, UniProt Q96J92).
Test [4] has as its target HIPK1 (Homo sapiens, UniProt Q86Z02).
Test [5] addresses MAPK7 (Homo sapiens, UniProt Q13164).
Test [6] deals with TYRO3 (Homo sapiens, UniProt Q06418).
Sequence of TYRO3 (Q06418 whole entry): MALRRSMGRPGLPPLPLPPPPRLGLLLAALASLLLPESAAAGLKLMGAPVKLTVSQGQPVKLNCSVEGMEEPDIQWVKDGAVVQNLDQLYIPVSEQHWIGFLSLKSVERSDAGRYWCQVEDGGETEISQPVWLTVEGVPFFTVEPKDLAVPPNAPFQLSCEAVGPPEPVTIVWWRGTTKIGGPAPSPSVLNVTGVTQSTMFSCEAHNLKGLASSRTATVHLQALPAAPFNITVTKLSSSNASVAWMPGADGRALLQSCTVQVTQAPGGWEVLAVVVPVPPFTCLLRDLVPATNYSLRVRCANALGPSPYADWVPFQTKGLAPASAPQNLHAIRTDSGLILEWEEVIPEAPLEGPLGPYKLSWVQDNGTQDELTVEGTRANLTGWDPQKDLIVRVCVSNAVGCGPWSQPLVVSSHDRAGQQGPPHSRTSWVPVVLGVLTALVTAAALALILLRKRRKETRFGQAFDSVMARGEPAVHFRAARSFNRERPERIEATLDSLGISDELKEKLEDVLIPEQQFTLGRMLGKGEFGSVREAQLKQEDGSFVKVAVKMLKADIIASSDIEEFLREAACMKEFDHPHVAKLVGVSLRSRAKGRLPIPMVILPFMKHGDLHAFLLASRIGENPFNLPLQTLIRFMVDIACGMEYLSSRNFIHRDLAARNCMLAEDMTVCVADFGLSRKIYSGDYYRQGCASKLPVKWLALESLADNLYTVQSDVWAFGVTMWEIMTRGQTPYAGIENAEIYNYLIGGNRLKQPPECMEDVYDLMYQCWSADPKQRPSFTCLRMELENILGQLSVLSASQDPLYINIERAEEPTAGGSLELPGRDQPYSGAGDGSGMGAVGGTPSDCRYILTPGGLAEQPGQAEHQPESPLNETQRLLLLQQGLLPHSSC
The target in test [7] is TYK2 (Homo sapiens, UniProt P29597).
Test [8] deals with JAK2 (Homo sapiens, UniProt O60674).
For test [9], the target named is CDK7 (Homo sapiens, UniProt P50613).
Sequence of CDK7 (P50613 whole entry): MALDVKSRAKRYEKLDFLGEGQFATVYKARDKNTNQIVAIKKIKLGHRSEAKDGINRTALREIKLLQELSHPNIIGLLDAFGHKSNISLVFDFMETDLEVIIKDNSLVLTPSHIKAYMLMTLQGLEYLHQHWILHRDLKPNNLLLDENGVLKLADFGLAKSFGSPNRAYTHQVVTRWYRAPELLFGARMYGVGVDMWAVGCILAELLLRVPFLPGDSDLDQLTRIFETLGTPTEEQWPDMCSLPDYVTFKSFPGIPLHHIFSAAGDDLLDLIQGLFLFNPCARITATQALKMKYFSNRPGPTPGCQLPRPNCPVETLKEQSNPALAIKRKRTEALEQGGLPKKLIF
The target in test [10] is DCK (Homo sapiens, UniProt P27707).
Sequence of DCK (P27707 whole entry): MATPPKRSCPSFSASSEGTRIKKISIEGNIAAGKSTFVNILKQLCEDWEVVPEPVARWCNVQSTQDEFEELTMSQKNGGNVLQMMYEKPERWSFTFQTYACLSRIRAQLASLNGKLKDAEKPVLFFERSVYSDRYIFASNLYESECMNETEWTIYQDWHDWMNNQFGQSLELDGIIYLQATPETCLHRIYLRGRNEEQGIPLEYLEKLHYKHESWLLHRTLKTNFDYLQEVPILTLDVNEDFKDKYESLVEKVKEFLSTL
The target in test [11] is MET (Homo sapiens, UniProt P08581).
Sequence of MET (P08581 whole entry): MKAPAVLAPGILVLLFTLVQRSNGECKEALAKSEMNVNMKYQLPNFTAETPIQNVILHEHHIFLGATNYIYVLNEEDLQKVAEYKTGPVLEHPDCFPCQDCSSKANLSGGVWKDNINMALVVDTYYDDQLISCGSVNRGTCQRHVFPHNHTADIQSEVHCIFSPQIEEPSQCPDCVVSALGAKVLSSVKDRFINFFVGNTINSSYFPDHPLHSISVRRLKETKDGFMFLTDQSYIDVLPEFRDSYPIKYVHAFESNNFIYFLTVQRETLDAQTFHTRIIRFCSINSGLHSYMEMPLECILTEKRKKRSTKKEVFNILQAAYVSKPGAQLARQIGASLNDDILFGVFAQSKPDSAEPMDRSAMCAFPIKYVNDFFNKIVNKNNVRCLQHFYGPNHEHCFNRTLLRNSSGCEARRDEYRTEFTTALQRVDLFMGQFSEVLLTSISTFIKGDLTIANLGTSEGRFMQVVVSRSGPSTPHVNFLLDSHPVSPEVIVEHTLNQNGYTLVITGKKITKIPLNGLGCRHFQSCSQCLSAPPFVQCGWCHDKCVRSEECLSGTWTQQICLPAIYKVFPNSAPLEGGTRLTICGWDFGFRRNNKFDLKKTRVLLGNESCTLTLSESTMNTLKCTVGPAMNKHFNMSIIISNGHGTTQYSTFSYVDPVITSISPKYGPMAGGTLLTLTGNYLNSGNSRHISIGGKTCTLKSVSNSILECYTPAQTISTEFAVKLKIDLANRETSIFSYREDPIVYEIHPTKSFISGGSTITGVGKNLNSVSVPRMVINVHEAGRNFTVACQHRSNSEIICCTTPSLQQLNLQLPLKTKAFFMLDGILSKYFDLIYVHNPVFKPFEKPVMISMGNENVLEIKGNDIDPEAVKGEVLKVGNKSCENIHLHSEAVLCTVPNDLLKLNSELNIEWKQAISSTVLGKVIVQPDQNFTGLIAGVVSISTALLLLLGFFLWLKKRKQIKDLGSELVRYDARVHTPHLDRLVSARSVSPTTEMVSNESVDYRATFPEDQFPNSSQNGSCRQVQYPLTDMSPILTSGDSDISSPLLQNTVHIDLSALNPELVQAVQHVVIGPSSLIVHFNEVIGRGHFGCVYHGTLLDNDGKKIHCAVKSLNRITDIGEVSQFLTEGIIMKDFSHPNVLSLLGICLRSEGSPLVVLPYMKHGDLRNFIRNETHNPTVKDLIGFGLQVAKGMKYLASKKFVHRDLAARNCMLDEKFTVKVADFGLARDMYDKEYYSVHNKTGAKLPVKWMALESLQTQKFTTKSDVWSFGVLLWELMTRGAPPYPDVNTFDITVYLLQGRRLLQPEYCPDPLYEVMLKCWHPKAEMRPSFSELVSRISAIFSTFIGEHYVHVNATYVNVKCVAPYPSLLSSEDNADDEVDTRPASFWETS
The target in test [12] is FRK (Homo sapiens, UniProt P42685).
Sequence of FRK (P42685 whole entry): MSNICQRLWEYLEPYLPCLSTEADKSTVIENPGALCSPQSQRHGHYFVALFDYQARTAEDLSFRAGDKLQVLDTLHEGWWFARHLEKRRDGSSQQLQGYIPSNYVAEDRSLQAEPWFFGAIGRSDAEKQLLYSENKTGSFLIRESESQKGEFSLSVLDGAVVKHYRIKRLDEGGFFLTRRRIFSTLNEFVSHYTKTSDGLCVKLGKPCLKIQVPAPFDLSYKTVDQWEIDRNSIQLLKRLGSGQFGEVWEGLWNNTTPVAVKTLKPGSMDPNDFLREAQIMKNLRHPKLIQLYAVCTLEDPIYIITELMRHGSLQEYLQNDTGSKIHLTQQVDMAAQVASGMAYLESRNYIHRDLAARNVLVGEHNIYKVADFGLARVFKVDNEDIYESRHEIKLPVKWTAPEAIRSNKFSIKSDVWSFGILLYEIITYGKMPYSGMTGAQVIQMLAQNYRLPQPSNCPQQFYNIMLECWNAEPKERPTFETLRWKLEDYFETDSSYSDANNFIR
In test [13] the target is PLK4 (Homo sapiens, UniProt O00444).
In test [14] the target is CDK2 (Homo sapiens, UniProt P24941).
The target in test [15] is EPHA2 (Homo sapiens, UniProt P29317).
Test [16] deals with EPHB3 (Homo sapiens, UniProt P54753).
The target in test [17] is IKBKB (Homo sapiens, UniProt O14920).
Sequence of IKBKB (O14920 whole entry): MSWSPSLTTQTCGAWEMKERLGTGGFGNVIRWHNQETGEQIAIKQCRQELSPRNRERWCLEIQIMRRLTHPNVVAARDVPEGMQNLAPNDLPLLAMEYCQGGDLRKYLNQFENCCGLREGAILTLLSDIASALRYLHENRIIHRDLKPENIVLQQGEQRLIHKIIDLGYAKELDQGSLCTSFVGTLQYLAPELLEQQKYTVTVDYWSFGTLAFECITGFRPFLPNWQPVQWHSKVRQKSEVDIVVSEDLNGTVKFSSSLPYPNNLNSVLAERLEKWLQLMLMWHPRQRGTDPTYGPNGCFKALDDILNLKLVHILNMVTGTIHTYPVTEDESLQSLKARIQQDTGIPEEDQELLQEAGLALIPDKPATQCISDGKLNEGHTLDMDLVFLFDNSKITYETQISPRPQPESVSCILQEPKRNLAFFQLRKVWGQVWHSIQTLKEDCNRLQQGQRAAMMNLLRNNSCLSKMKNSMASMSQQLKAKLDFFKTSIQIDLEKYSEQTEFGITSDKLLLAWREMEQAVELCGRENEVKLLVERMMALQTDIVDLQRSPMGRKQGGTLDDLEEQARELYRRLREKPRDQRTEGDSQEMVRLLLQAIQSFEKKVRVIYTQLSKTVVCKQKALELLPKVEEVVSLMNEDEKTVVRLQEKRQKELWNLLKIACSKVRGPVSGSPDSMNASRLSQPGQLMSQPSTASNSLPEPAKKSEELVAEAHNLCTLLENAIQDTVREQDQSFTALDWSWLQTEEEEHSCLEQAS
Test [18] addresses CDK10 (Homo sapiens, UniProt Q15131).
For test [19], the target named is CAMKK1 (Homo sapiens, UniProt Q8N5S9).
Sequence of CAMKK1 (Q8N5S9 whole entry): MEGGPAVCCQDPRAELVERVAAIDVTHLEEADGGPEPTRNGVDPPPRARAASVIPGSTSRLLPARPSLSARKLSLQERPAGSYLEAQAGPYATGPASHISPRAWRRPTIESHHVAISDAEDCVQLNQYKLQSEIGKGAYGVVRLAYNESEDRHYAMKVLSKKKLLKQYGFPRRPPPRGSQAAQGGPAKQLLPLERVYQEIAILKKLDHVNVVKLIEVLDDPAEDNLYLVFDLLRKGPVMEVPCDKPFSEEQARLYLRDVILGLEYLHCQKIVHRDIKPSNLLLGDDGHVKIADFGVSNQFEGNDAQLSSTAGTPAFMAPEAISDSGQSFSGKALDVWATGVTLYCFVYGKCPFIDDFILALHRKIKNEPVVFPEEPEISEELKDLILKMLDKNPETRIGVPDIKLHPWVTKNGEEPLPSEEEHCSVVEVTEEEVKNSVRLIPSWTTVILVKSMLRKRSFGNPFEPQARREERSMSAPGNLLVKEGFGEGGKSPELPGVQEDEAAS
In test [20] the target is ERN1 (Homo sapiens, UniProt O75460).
The target of test [21] is JAK1 (Homo sapiens, UniProt P23458).

Sequence of CDK10 (Q15131 whole entry): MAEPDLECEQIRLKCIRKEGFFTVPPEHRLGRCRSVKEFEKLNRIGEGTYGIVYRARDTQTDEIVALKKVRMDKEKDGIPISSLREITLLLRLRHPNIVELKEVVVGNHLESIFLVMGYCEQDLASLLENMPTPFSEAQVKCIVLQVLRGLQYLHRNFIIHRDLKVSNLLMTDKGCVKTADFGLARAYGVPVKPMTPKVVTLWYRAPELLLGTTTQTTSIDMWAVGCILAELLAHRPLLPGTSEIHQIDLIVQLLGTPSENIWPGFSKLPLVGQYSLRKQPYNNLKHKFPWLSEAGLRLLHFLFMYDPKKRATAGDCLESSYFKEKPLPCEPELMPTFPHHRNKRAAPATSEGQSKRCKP

In the case of `COc1ccccc1-c1n[nH]c2nc(N[C@H]3CC[C@H](NS(=O)(=O)CCC(F)(F)F)CC3)nc(OC)c12` [compound 31, 3,3,3-Trifluoro-N-(trans-4-((4-methoxy-3-(2-methoxyphenyl)-1H-pyrazolo[3,4-d]pyrimidin-6-yl)amino)cyclohexyl)propane-1-sulfonamide], the IC50 in test [1], in [2], in test [3], in test [4], in [5] and in test [6] was ≥ 20 µM each time. The IC50 in test [7], in [8], in test [9], in [10], in [11] and in test [12] was ≥ 20 µM throughout. Also, the IC50 is ≥ 20 µM in test [13]; 1.2 µM in test [14]; ≥ 20 µM in test [15]; ≥ 20 µM in test [16]; ≥ 20 µM in [17]; 2.6 µM in test [18]. Moreover, the IC50 in [19], in test [20] and in [21] was ≥ 20 µM in each case.
